Laboratory results as given in US5849525A, “Compositions corresponding to a proton-coupled peptide transporter and methods of making and using same” (Brigham and Women's Hospital, Inc., priority 1995, dated 1998).
Square brackets hold non-standard residues; d marks the D form. Peptide text beside a SMILES is read from it. Sar = CNCC(=O)O

Assays:
[1] = molecular target: T1, proton-coupled peptide transporter (Oryctolagus cuniculus, UniProt P36836); test: Intracellular pH (pH-sensitive microelectrode) and membrane potential of cRNA-transformed oocytes; assay type: cell-based, rabbit; details: pHo 5.5 solution, Gly-Sar 10 mM; for membrane potential Vm after application: depolarized from -20 mV
T1 construct: Xenopus laevis oocytes were injected with cRNA coding the proton-coupled peptide transporter; expressed in transfected cells; host or cells: Xenopus laevis oocytes injected with cRNA transcribed in vitro from the cloned cDNA
T1 sequence (P36836 1-707): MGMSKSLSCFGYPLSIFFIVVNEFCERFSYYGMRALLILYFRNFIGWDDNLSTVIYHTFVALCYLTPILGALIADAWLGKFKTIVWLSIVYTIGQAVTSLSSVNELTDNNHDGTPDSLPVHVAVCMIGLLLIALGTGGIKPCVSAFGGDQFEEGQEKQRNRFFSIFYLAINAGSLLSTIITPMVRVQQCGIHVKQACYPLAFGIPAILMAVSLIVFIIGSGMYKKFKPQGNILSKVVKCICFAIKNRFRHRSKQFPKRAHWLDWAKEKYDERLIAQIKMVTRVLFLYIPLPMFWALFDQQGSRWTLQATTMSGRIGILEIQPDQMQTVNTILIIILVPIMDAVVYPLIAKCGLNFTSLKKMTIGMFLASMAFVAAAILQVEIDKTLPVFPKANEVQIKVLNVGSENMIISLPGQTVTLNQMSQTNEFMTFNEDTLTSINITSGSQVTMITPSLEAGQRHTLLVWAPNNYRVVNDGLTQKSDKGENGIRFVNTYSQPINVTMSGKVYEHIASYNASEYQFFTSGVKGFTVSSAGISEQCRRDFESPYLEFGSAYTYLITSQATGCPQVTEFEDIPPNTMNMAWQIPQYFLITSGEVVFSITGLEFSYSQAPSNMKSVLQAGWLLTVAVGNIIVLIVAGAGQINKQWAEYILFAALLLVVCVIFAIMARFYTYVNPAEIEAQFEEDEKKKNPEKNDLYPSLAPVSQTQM
From the text: The example describes hydrogen ion cotransport by Xenopus laevis oocytes transformed with cRNA coding a proton-coupled peptide transporter. Transformed Xenopus laevis oocytes of Example 5 and 6 were implanted with microelectrodes and membrane potential set with electrodes.
Internal pH measurements were taken with microelectrodes, silanized borosilicate pipettes with tips filled with a hydrogen ionophore (I-cocktail B, Fluka). […] After washing with uptake solution without glycyl-sarcosine, each oocyte was clamped at this membrane potential. […] The equation used to calculate the electrochemical potential difference for H^+ (ΔμH) was ΔμH +=RT 1n ([H^+ ] i/[H^+ ]o)+zF (Vi -Vo) and that for Gly-Sar (ΔμGly-Sar) was ΔμGly-Sar =RT 1n ([Gly-Sar] i/ [Gly-Sar]o), where; R is the gas constant, T the absolute temperature (295° K.), F is Faraday's constant, pHi and pHo the intra- and extracellular pH, Gly-Sari and Gly-Saro, the intra-and extracelluar Gly-Sar concentrations, and z the valency.
Oocytes were initially kept in pH 7.4 medium (96 mM NaCl, 1 mM KCl, 1.8 mM CaCl2, 1.0 mM MgCl2 and 5 HEPES). […] In water-injected oocytes, lowering pHo from 7.4 to 5.5 caused a continuous pHi decrease which was not dependent on the expression of the proton-coupled peptide transporter.

[2] = molecular target: T1, proton-coupled peptide transporter; test: Two-electrode voltage clamp of Xenopus laevis oocytes injected with transporter cRNA: substrate-evoked inward currents and Km; assay type: cell-based, rabbit; details: uptake solution pH 5.5
From the text: These oocytes were subjected to two electrode voltages clamp analysis (Gene Clamp 500, Axon Instruments, California) in the manner described in Kanaisy & Hediger, M. A. Nature 360, 467-71 (1992).
FIG. 9 depicts electrophysiological measurements of transformed cocytes as a percent of glycyl-sarcosine evoked current. Data representing glycyl-sarcosine are depicted as a solid black bar. Data representing peptide are depicted with dotted bars. Data representing antibiotics are depicted with hatched bars.
By altering peptide concentrations, current amplitudes for different compositions, Km values were determined.

[3] = molecular target: T1, proton-coupled peptide transporter; test: Uptake of C14-glycyl-sarcosine by Xenopus laevis oocytes injected with rabbit jejunum poly(A)+ RNA or transporter cRNA; assay type: cell-based; details: 100 μM C14-Gly-Sar, 1 hour, pH 5.5
Method: This example describes the uptake of radiolabeled glycyl-sarcosine (C^14 -Gly-Sar) by Xenopus laevis oocytes injected with poly(A)^+ RNA from rabbit jejunum or with cRNA synthesized by in vitro transcription of proton-coupled peptide transporter cDNA.
All uptakes in this and the following figures were performed with 6-8 oocytes, 3 days after injection. RNA-injected oocytes were injected with 25 ng cRNA in 50 nl.
Oocytes injected with cRNA coding a proton-coupled peptide transporter were incubated for 1 hour in uptake solution (100 mM NaCl, 2 mM KCl 1 mM MgCl2, 1 mM CaCl2, 3 mM HEPES, 3 mM MES, 3 mM Tris, pH 5.5) in the presence of 100 μM C^14 -glycol-sarcosine (specific radioactivity, 112 mCi/mmol, custom synthesized by the Radiochemical Center, Amersham, U.K.). The oocytes were rinsed with ice-cold washing solution (uptake solution with pH adjusted to 7.5 with Tris base) and the radioactivity of each oocyte was measured by scintillation counting.

[4] = molecular target: T1, proton-coupled peptide transporter; test: Hybrid depletion of rabbit small intestine poly(A)+ RNA with antisense/sense DNA oligonucleotide before oocyte injection, glycyl-sarcosine uptake; assay type: cell-based; details: oocytes receiving rabbit poly(A)+ RNA without sense or antisense nucleic acid
From the text: This example describes hybrid depletion of rabbit small intestine poly(A)^+ RNA before injection into Xenopus laevis oocytes. A first admixture was formed of rabbit small intestine derived poly(A)^+ RNA and an antisense DNA oligonucleotide corresponding to the 5'-end coding region of cDNA corresponding to the proton-coupled peptide transporter.
A second admixture was formed of rabbit small intestine derived poly(A)^+ RNA and a sense DNA oligonucleotide corresponding to the same region as the antisense DNA. Both DNAs were twenty-three nucleotides in length. Rabbit jejunum poly(A)^+ RNA (0.5 μg/μl) was incubated with the oligonucleotide (0.25 μg/μl in the presence of 50 mM NaCl at 42° C. for one hour and then injected into oocytes. The uptake of the peptide, glycyl-sarcosine, was measured three days after injection.

[5] = molecular target: T1, proton-coupled peptide transporter; test: C14-glycyl-sarcosine uptake in cRNA-transformed oocytes in sodium-free or chloride-free solutions and at different pH; assay type: cell-based, rabbit
From the text: This example describes the stoichiometry and voltage dependence of the proton-coupled peptide transporter. Four days after transformation with cRNA coding the proton-coupled peptide transporter, Xenopus laevis oocytes were examined in the presence of 1 mMC^14 -glycyl-sarcosine in standard uptake solution (pH 5.5), modified to be sodium or chloride ion free.
In sodium-free solutions, the sodium chloride was replaced with choline-chloride. In chloride free solutions, the sodium chloride was replaced with sodium nitrate.
Glycyl-sarcosine uptake was determined from the slope of the time-dependence of 1 to 5 minutes uptake. The results are depicted in bar graph form in FIG. 10. […] That is, the presence of or absence of sodium ion and the presence or absence of chloridion had little or no effect on glycyl-sarcosine uptake. In each instance the uptake was approximately 1000 pmol glycyl-sarcosine.
In this example Xenopus laevis oocytes transformed with cRNA coding the proton-coupled peptide transporter of the preceding example were evaluated for C^14 -glycyl-sarcosine uptake in the standard uptake solutions modified to different pH. Glycyl-sarcosine uptake was determined from the slope of time-dependence of 1 to 5 minute uptakes.

[6] = molecular target: T1, proton-coupled peptide transporter; test: Stoichiometry (uptake versus net charge flux) and cumulative C14-glycyl-sarcosine uptake in cRNA-transformed oocytes; assay type: cell-based, rabbit
Method: Internal pH measurements were taken with microelectrodes, silanized borosilicate pipettes with tips filled with a hydrogen ionophore (I-cocktail B, Fluka). The membrane potential was measured in uptake solution (pH 5.5) containing 1 mM glycyl-sarcosine. After washing with uptake solution without glycyl-sarcosine, each oocyte was clamped at this membrane potential. […] The equation used to calculate the electrochemical potential difference for H^+ (ΔμH) was ΔμH +=RT 1n ([H^+ ] i/[H^+ ]o)+zF (Vi -Vo) and that for Gly-Sar (ΔμGly-Sar) was ΔμGly-Sar =RT 1n ([Gly-Sar] i/ [Gly-Sar]o), where; R is the gas constant, T the absolute temperature (295° K.), F is Faraday's constant, pHi and pHo the intra- and extracellular pH, Gly-Sari and Gly-Saro, the intra-and extracelluar Gly-Sar concentrations, and z the valency.
This 1:1 coupling ratio is consistent with analysis of the coupling ratio based on thermodynamic considerations. Cumulative uptake of C^14 -glycyl-sarcosine was measured as depicted in FIG. 14.
Data represent the average of the uptakes from 20-24 oocytes after subtraction of the uptakes of water-injected oocytes. After a ten hour incubation in 1 mM non-radiolabeled 1 mM glycyl-sarcosine, the ^14 C-glycyl-sarcosine influx was 1754±403 (n=7) pmol/oocyte.

[7] = system: Xenopus laevis oocytes; test: Thin-layer chromatography of solubilized oocytes incubated in 14C-Gly-Sar (hydrolysis); assay type: in vitro ADME; details: 1 mM 14C-Gly-Sar, pH 5.5, seven hours
[8] = molecular target: proton-coupled peptide transporter derived from rabbit (rabbit)
[9] = molecular target: proton-coupled peptide transporter derived from rabbit (rabbit); remark: listed apart in the source
[10] = substrate: CC1(C)S[C@@H]2[C@H](NC(=O)C3(N)CCCCC3)C(=O)N2[C@H]1C(=O)O; test: cells, lysate or membranes; details: other: current amplitudes at altered substrate concentrations, pH 5.5, cRNA-injected oocytes
[11] = substrate: NCC(=O)NCC(=O)NCC(=O)O; test: cells, lysate or membranes; details: other: current amplitudes at altered substrate concentrations, pH 5.5, cRNA-injected oocytes
[12] = substrate: CC(C)C[C@H](NC(=O)CN)C(=O)O; test: cells, lysate or membranes; assay type: cell-based, rabbit; details: other: current amplitudes at altered substrate concentrations, pH 5.5, cRNA-injected oocytes
[13] = substrate: CN(CC(=O)O)C(=O)CN; test: cells, lysate or membranes; assay type: cell-based, rabbit; details: other: current amplitudes at altered substrate concentrations, pH 5.5, cRNA-injected oocytes
[14] = substrate: C[C@H](N)C(=O)N[C@@H](CC(=O)O)C(=O)O; test: cells, lysate or membranes; assay type: cell-based, rabbit; details: other: current amplitudes at altered substrate concentrations, pH 5.5, cRNA-injected oocytes

NCC(=O)O [glycine]
effect on intracellular pH (pHi) [1]: no detectable response | membrane potential Vm after application [1]: no detectable response

CC1(C)S[C@@H]2[C@H](NC(=O)C3(N)CCCCC3)C(=O)N2[C@H]1C(=O)O [Cyclacillin]
substrate-evoked inward current [2]: inward current

CC(C)C[C@H](NC(=O)CN)C(=O)O [Glycyl-leucine]
substrate-evoked inward current [2]: inward current

CN(CC(=O)O)C(=O)CN [Glycyl-sarcosine, glycyl-sarcosine] (H-Gly-[Sar]-OH)
substrate-evoked inward current [2]: strongest current | uptake of glycyl-sarcosine ([3]; oocytes receiving rabbit jejunum poly(A)+ RNA): less than 20 pmol | uptake of glycyl-sarcosine ([3]; oocytes receiving transporter cRNA): ~200 pmol | uptake of glycyl-sarcosine [4]: approximately 8 pmol | glycyl-sarcosine uptake ([5]; 1 mM C14-glycyl-sarcosine, pH 5.5, presence or absence of sodium or chloride ion): approximately 1000 pmol | pH of maximum glycyl-sarcosine uptake ([5]; standard uptake solutions modified to different pH): 5.5 | membrane potential Vm after application [1]: +15 mV | effect on intracellular pH (pHi) ([1]; listed as Gly-Sar): large intracellular acidification | effect on intracellular pH (pHi) ([1]; listed as glycyl-sarcosine): decrease in pH | time to thermodynamic equilibrium of cumulative uptake ([6]; C14-glycyl-sarcosine, cRNA-transformed oocytes): approximately eight | 14C-glycyl-sarcosine influx ([6]; after ten hour incubation in 1 mM non-radiolabeled glycyl-sarcosine, n=7): 1754±403 pmol/oocyte | fraction of intracellular 14C-label that is hydrolyzed glycyl-sarcosine [7]: no more than one third

glycyl-sarcosine (peptide)
Km from current amplitudes [8]: 1900 µM | uptake of C14-glycyl-sarcosine by oocytes [9]: 200 pmol

CC1=C(C(=O)O)N2C(=O)[C@@H](NC(=O)[C@H](N)C3=CCC=CC3)[C@H]2SC1 [cephradine]
substrate-evoked inward current [2]: Significant currents

CC1=C(C(=O)O)N2C(=O)[C@@H](NC(=O)[C@H](N)c3ccc(O)cc3)[C@H]2SC1 [cefadroxil]
substrate-evoked inward current [2]: Significant currents

B1: proton-coupled peptide transporter (Oryctolagus cuniculus) (protein)
chain: MGMSKSLSCFGYPLSIFFIVVNEFCERFSYYGMRALLILYFRNFIGWDDNLSTVIYHTFVALCYLTPILGALIADAWLGKFKTIVWLSIVYTIGQAVTSLSSVNELTDNNHDGTPDSLPVHVAVCMIGLLLIALGTGGIKPCVSAFGGDQFEEGQEKQRNRFFSIFYLAINAGSLLSTIITPMVRVQQCGIHVKQACYPLAFGIPAILMAVSLIVFIIGSGMYKKFKPQGNILSKVVKCICFAIKNRFRHRSKQFPKRAHWLDWAKEKYDERLIAQIKMVTRVLFLYIPLPMFWALFDQQGSRWTLQATTMSGRIGILEIQPDQMQTVNTILIIILVPIMDAVVYPLIAKCGLNFTSLKKMTIGMFLASMAFVAAAILQVEIDKTLPVFPKANEVQIKVLNVGSENMIISLPGQTVTLNQMSQTNEFMTFNEDTLTSINITSGSQVTMITPSLEAGQRHTLLVWAPNNYRVVNDGLTQKSDKGENGIRFVNTYSQPINVTMSGKVYEHIASYNASEYQFFTSGVKGFTVSSAGISEQCRRDFESPYLEFGSAYTYLITSQATGCPQVTEFEDIPPNTMNMAWQIPQYFLITSGEVVFSITGLEFSYSQAPSNMKSVLQAGWLLTVAVGNIIVLIVAGAGQINKQWAEYILFAALLLVVCVIFAIMARFYTYVNPAEIEAQFEEDEKKKNPEKNDLYPSLAPVSQTQM
notes: Xenopus laevis oocytes were injected with cRNA coding the proton-coupled peptide transporter; expressed in transfected cells; host or cells: Xenopus laevis oocytes injected with cRNA transcribed in vitro from the cloned cDNA
Km [10]: 137 µM | Km [11]: 5100 µM | Km [12]: 81 µM | Km [13]: 1900 µM | Km [14]: 143 µM
